In US10988459B2 (priority 2015, dated 2021) one finds Ki data, which are given here for 29 compounds.

The assay has as its target human RIP1 kinase domain (2-375) (Homo sapiens (Human), UniProt Q13546). Nature of the assay: biochemical. In kind it is biochemical. In outline:
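50 nM purified kinase domain from baculovirus-infected insect cells, incubated 2 h with compound in 50 mM Hepes pH 7.5, 30 mM MgCl2, 1 mM DTT, 50 uM ATP, 0.002% Brij-35, 0.5% DMSO. ADP formation read by Transcreener FP at 633 nm excitation. Ki^app fitted with the Morrison tight-binding equation.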

[1] abbreviates: Table 5, apparent Ki (Morrison tight-binding fit), 50 nM RIP1 kinase domain, 50 uM ATP, 2 hours incubation, read-out: Ki.
[2] abbreviates: Table 1, apparent Ki (Morrison tight-binding fit), 50 nM RIP1 kinase domain, 50 uM ATP, 2 hours incubation, read-out: RIP1 Ki.
The mark [3] stands for this setting: tight-binding apparent inhibition constant, human RIP1 kinase domain (2-375) 50 nM, 50 uM ATP, 2 hours, read-out: Ki.
[4] abbreviates: human RIP1 kinase domain (2-375), Transcreener ADP assay, 50 uM ATP, 2 hours incubation, read-out: RIP1 Ki.
Where [5] appears, read: human RIP1 kinase domain (2-375), 50 uM ATP, 2 hours incubation, Transcreener ADP assay, read-out: RIP1 Ki.

Where two headings read alike, the source gives them in different places.

Sequence of human RIP1 kinase domain (2-375) (Q13546 2-375): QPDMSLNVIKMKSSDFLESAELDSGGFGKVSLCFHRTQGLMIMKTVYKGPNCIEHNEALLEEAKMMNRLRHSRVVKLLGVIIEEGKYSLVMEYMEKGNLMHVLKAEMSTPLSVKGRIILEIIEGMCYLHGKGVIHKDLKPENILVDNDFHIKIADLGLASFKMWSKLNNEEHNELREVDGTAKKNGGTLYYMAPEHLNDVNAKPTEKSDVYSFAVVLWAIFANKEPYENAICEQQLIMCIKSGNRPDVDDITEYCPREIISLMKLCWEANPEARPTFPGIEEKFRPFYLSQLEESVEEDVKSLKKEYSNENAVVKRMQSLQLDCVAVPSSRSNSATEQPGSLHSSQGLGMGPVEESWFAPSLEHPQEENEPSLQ

As for `CN1C(=O)[C@H](NC(=O)c2ncn(Cc3ccccc3)n2)CCn2nc(CCCN3CCOCC3)cc21` (single isomer, unassigned) [Example 738], the Ki under setting [1] came out at 4020 nM.

On to `CC1CCc2onc(C(=O)N[C@H]3COc4ccccc4NC3=O)c2C1` (stereo partly drawn) [Example 63, 5-methyl-N-((S)-4-oxo-2,3,4,5-tetrahydrobenzo[b][1,4]oxazepin-3-yl)-4,5,6,7-tetrahydrobenzo[d]isoxazole-3-carboxamide], for which the Ki under setting [2] is 740 nM.

Take `Cc1cc2n(n1)CC[C@@H](NC(=O)c1ncc3cnn(-c4ccccn4)c3n1)C(=O)N2C` [Example 633, 1-(2-pyridyl)-N-[(6R)-2,4-dimethyl-5-oxo-7,8-dihydro-6H-pyrazolo[1,5-a][1,3]diazepin-6-yl]pyrazolo[3,4-d]pyrimidine-6-carboxamide]: under setting [3], the Ki came to 3800 nM.

Regarding `Cc1cc2n(n1)CCC(NC(=O)c1ncn(CC3CCCCC3)n1)C(=O)N2C` (centres unmarked) [Example 253, 1-(cyclohexylmethyl)-N-(2,4-dimethyl-5-oxo-5,6,7,8-tetrahydro-4H-pyrazolo[1,5-a][1,3]diazepin-6-yl)-1H-1,2,4-triazole-3-carboxamide], the Ki under setting [4] turned out to be 171 nM.

Turning to `CN1C(=O)[C@@H](NC(=O)c2nc3n(n2)CCNC3C(F)(F)F)COc2ccccc21` (stereo partly drawn) [Example 787, N-[(3S)-5-methyl-4-oxo-2,3-dihydro-1,5-benzoxazepin-3-yl]-8-(trifluoromethyl)-5,6,7,8-tetrahydro-[1,2,4]triazolo [1,5-a]pyrazine-2-carboxamide], under setting [1], the Ki came to 309 nM.

For the compound `CN1C(=O)C(NC(=O)c2ncn(Cc3ccccc3)n2)CCn2nc(CN3CCC(F)(F)C3)cc21` (single isomer, unassigned) [Example 448, 1-benzyl-N-(2-((3,3-difluoropyrrolidin-1-yl)methyl)-4-methyl-5-oxo-5,6,7,8-tetrahydro-4H-pyrazolo[1,5-a][1,3]diazepin-6-yl)-1H-1,2,4-triazole-3-carboxamide], the Ki under setting [3] worked out at 214 nM.

On to `COC1CN(Cc2cc3n(n2)CC[C@H](NC(=O)c2ncn(Cc4ccccc4)n2)C(=O)N3C)C1` (single isomer, unassigned) [Example 725], for which the Ki under setting [1] was found to be 172 nM.

For the compound `Cc1cc2n(n1)CC[C@H](NC(=O)c1ncn(Cc3c(F)cccc3F)n1)C(=O)N2C` [Example 301, (S)-1-(2,6-difluorobenzyl)-N-(2,4-dimethyl-5-oxo-5,6,7,8-tetrahydro-4H-pyrazolo[1,5-a][1,3]diazepin-6-yl)-1H-1,2,4-triazole-3-carboxamide], under setting [4], the Ki was determined as 10.4 nM.

Turning to `CN1C(=O)[C@@H](NC(=O)c2nc3n(n2)[C@@H](c2ccccc2F)CC3)CCn2nccc21` [Example 465, (R)-5-(2-fluorophenyl)-N—((S)-4-methyl-5-oxo-5,6,7,8-tetrahydro-4H-pyrazolo[1,5-a][1,3]diazepin-6-yl)-6,7-dihydro-5H-pyrrolo[1,2-b][1,2,4]triazole-2-carboxamide], the Ki under setting [3] came to 9 nM.

Take `CN1C(=O)[C@@H](NC(=O)c2nc3n(n2)[C@@H](c2ccccc2)CC3)CCn2nccc21` (single isomer, unassigned) [Example 624]: the Ki under setting [3] was 20 nM.

As for `Cc1cc2n(n1)CC[C@H](NC(=O)c1ncn(Cc3ncccc3F)n1)C(=O)N2C` [Example 654, 1-[(3-fluoro-2-pyridyl)methyl]-N-(6S)-2,4-dimethyl-5-oxo-7,8-dihydro-6H-pyrazolo[1,5-a][1,3]diazepin-6-yl-1,2,4-triazole-3-carboxamide], under setting [3], the Ki came to 110 nM.

In the case of `CN1C(=O)[C@@H](NC(=O)c2n[nH]c3ncc(C(F)(F)F)cc23)COc2ccccc21` [Example 279, (S)—N-(5-methyl-4-oxo-2,3,4,5-tetrahydrobenzo[b][1,4]oxazepin-3-yl)-5-(trifluoromethyl)-1H-pyrazolo[3,4-b]pyridine-3-carboxamide], the Ki under setting [4] stood at 98.1 nM.

With `CCCC1(C)OCc2cnc(C(=O)N[C@H]3CCn4nccc4N(C)C3=O)nc21` (stereo partly drawn) [Example 566, 7-methyl-7-propyl-N-[(6S)-4-methyl-5-oxo-7,8-dihydro-6H-pyrazolo[1,5-a][1,3]diazepin-6-yl]-5H-furo[3,4-d]pyrimidine-2-carboxamide], the Ki under setting [3] amounted to 480 nM.

As for `CN1C(=O)C(NC(=O)c2ncn(Cc3ccccc3)n2)CCn2nc(C(C)(C)F)cc21` (single isomer, unassigned) [Example 369, 1-benzyl-N-[2-(1-fluoro-1-methyl-ethyl)-4-methyl-5-oxo-7,8-dihydro-6H-pyrazolo[1,5-a][1,3]diazepin-6-yl]-1,2,4-triazole-3-carboxamide], under setting [3], the Ki stood at 345 nM.

For the compound `CN1C(=O)[C@@H](NC(=O)c2ncn(Cc3ccccc3F)n2)CCn2nc(CCN3CCOCC3)cc21` [Example 753], the Ki under setting [1] was found to be 74 nM.

Regarding `COCCOCCc1cc2n(n1)CC[C@H](NC(=O)c1ncn(Cc3ccccc3)n1)C(=O)N2C` [Example 755, 1-benzyl-N-[(6S)-2-[2-(2-methoxyethoxy)ethyl]-4-methyl-5-oxo-7,8-dihydro-6H-pyrazolo[1,5-a][1,3]diazepin-6-yl]-1,2,4-triazole-3-carboxamide], the Ki under setting [1] worked out at 124 nM.

In the case of `Cc1cc2n(n1)CC[C@H](NC(=O)c1cc3c(cn1)COC3(C)CC(F)(F)F)C(=O)N2C` (stereo partly drawn) [Example 266, N—((S)-2,4-dimethyl-5-oxo-5,6,7,8-tetrahydro-4H-pyrazolo[1,5-a][1,3]diazepin-6-yl)-1-m ethyl-1-(2,2,2-trifluoroethyl)-1,3-dihydrofuro[3,4-c]pyridine-6-carboxamide], the Ki under setting [4] was determined as 1300 nM.

For `CN1C(=O)[C@@H](NC(=O)c2ncc3c(n2)[C@](C)(CC(F)(F)F)OC3)COc2ccccc21` (racemic) [Example 688, rac-(7S)-7-methyl-N-[rac-(3 S)-5-methyl-4-oxo-2,3-dihydro-1,5-benzoxazepin-3-yl]-7-(2,2,2-trifluoroethyl)-5H-furo[3,4-d]pyrimidine-2-carboxamide], under setting [3], the Ki came out at 43.7 nM.

Consider `CCC1CCc2nc(C(=O)N[C@H]3CCn4nccc4N(C)C3=O)nn21` (stereo partly drawn) [Example 351, 5-ethyl-N-[(6S)-4-methyl-5-oxo-7,8-dihydro-6H-pyrazolo[1,5-a][1,3]diazepin-6-yl]-6,7-di hydro-5H-pyrrolo[1,2-b][1,2,4]triazole-2-carboxamide], for which the Ki under setting [3] turned out to be 394 nM.

With `Cc1cc(F)c2c(c1)OC[C@H](NC(=O)c1ncc3cnn(C(C)C)c3n1)C(=O)N2` [Example 606, 1-isopropyl-N-[(3S)-6-fluoro-8-methyl-4-oxo-3,5-dihydro-2H-1,5-benzoxazepin-3-yl]pyrazolo[3,4-d]pyrimidine-6-carboxamide], the Ki under setting [3] was 4.8 nM.

As for `CN1C(=O)[C@@H](NC(=O)c2cc3c(cn2)COC3(C)C)COc2ccccc21` [Example 22, (S)-1,1-dimethyl-N-(5-methyl-4-oxo-2,3,4,5-tetrahydrobenzo[b][1,4]oxazepin-3-yl)-1,3-dihydrofuro[3,4-c]pyridine-6-carboxamide], the Ki under setting [2] came out at 898 nM.

Take `CCC(C)(O)c1ccnc(C(=O)N[C@H]2COc3ccccc3N(C)C2=O)c1` (stereo partly drawn) [Example 488, 4-(1-hydroxy-1-methyl-propyl)-N-[(3S)-5-methyl-4-oxo-2,3-dihydro-1,5-benzoxazepin-3-yl]pyridine-2-carboxamide]: the Ki under setting [3] is 1800 nM.

On to `CN1C(=O)[C@@H](NC(=O)c2ncn(Cc3ccccn3)n2)CCn2nccc21` [Example 650, 1-(2-pyridylmethyl)-N-(6S)-4-methyl-5-oxo-7,8-dihydro-6H-pyrazolo[1,5-a][1,3]diazepin-6-yl-1,2,4-triazole-3-carboxamide], for which the Ki under setting [3] was found to be 190 nM.

On to `CN1C(=O)[C@@H](NC(=O)c2ncn(Cc3ccccc3)n2)CCn2nc([C@H]3CC3(F)F)cc21` [Example 148, 1-benzyl-N-((S)-2-((R)-2,2-difluorocyclopropyl)-4-methyl-5-oxo-5,6,7,8-tetrahydro-4H-pyrazolo[1,5-a][1,3]diazepin-6-yl)-1H-1,2,4-triazole-3-carboxamide], for which, under setting [5], the Ki came out at 40 nM.

In the case of `CC(C)Oc1cc2n(n1)CCC(NC(=O)c1ncn(Cc3ccccc3)n1)C(=O)N2C` (centres unmarked) [Example 461, 1-Benzyl-N-(2-isopropoxy-4-methyl-5-oxo-5,6,7,8-tetrahydro-4H-pyrazolo[1,5-a][1,3]diazepin-6-yl)-1H-1,2,4-triazole-3-carboxamide], the Ki under setting [3] is 50 nM.

Consider `CC(c1cnc2[nH]nc(C(=O)N[C@H]3COc4ccccc4N(C)C3=O)c2c1)C(F)(F)F` (stereo partly drawn) [Example 296, N—((S)-5-methyl-4-oxo-2,3,4,5-tetrahydrobenzo[b][1,4]oxazepin-3-yl)-5-(1,1,1-trifluoropropan-2-yl)-1H-pyrazolo[3,4-b]pyridine-3-carboxamide], for which the Ki under setting [4] was 61.2 nM.

Turning to `CN1C(=O)[C@@H](NC(=O)c2ncc3cnn(C4CCOCC4)c3n2)COc2ccccc21` [Example 558, N-[(3S)-5-methyl-4-oxo-2,3-dihydro-1,5-benzoxazepin-3-yl]-1-tetrahydropyran-4-yl-pyrazolo[3,4-d]pyrimidine-6-carboxamide], the Ki (Ki) was found to be 39 nM.

Turning to `CN1C(=O)C(NC(=O)c2nnc(Cc3ccccc3)[nH]2)CCCn2cncc21` (centres unmarked) [Example 102, 5-benzyl-N-(1-methyl-2-oxo-1,2,3,4,5,6-hexahydroimidazo[1,5-a][1,3]diazocin-3-yl)-4H-1,2,4-triazole-3-carboxamide], under setting [5], the Ki stood at 335 nM.

Consider `Cc1nn2c(c1C)N(C)C(=O)[C@@H](NC(=O)c1ncn(Cc3ccc(F)cc3)n1)CC2` [Example 281, (S)-1-(4-fluorobenzyl)-N-(2,3,4-trimethyl-5-oxo-5,6,7,8-tetrahydro-4H-pyrazolo[1,5-a][1, 3]diazepin-6-yl)-1H-1,2,4-triazole-3-carboxamide], for which the Ki under setting [4] was 38.7 nM.
